Experimental data taken from patent US11427548B2 (Arvinas Operations, Inc., priority 2015, dated 2022).
Like-named read-outs stand apart in the source and are kept apart here. Each block holds one compound with its values, some of them ahead of it.

Molecular target: T1, Androgen Receptor (Homo sapiens, UniProt P10275)
T1 construct: endogenous in cells; host or cells: VCaP cells
T1 sequence (P10275 1-920): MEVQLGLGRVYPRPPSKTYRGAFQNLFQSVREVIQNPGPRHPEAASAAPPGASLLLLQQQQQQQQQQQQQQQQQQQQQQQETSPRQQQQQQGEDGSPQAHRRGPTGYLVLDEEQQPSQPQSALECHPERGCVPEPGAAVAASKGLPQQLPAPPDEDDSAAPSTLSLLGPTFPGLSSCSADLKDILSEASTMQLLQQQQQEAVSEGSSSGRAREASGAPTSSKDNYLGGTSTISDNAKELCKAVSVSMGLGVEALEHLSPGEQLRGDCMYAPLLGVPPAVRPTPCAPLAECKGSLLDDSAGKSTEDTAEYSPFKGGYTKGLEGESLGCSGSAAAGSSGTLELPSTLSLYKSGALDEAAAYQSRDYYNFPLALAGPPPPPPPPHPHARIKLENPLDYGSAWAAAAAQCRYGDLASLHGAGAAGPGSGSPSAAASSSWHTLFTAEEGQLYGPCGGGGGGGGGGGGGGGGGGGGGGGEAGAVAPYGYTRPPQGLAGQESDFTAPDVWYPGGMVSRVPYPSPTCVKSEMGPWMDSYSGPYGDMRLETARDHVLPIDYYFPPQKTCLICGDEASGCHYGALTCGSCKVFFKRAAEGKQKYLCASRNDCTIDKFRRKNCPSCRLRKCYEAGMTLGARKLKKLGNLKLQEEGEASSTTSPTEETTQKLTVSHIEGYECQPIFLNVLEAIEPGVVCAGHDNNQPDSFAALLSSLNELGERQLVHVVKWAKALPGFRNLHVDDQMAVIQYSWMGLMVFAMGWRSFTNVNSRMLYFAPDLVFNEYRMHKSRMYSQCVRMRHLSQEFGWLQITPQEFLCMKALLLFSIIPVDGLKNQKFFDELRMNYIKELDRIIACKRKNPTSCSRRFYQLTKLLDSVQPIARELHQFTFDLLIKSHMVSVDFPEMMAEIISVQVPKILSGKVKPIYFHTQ
Test: Androgen Receptor ELISA assay (PathScan AR ELISA) in VCaP cells: AR degradation, Dmax and DC50
Format: cell-based
Outline: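 VCaP cells, 30,000/well, grown ≥3 days in phenol red-free RPMI with 5% charcoal-stripped FBS; compound added in 0.1% DMSO with 0.1 nM R1881, 7 half-log doses, 24 h. Lysate AR quantified by PathScan sandwich ELISA, HRP/TMB read at 450 nm, giving DC50 and Dmax.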

[1] = read-out: VCaP DC50; VCaP cells; Table 35
[2] = read-out: VCaP DC50; VCaP cells; Table 34
[3] = VCaP cells; Table 36; read-out: VCaP DC50
[4] = VCaP, VCaP cells; Table 36; read-out: VCaP Dmax (%)
[5] = read-out: VCaP DC50; VCaP cells; Table 36
[6] = VCaP cells; Table 34; read-out: VCaP DC50
[7] = VCaP, VCaP cells; Table 34; read-out: VCaP Dmax (%)
[8] = VCaP cells; Table 35; read-out: VCaP DC50
[9] = VCaP, VCaP cells; Table 35; read-out: VCaP Dmax (%)

Structure (SMILES): Cc1ncsc1-c1ccc(CNC(=O)[C@@H]2C[C@@H](O)CN2C(=O)[C@@H](NC(=O)COCCCCOc2ccc(-c3ccc(N4C(=S)N(c5ccc(C#N)c(C(F)(F)F)c5)C(=O)C4(C)C)cc3)cc2)C(C)(C)C(=O)OC(C)(C)C)cc1 [Example 545]
Dmax (VCaP, read-out: VCaP Dmax (%)): 51 to 70% | DC50 [1]: < 50 nM

Structure (SMILES): Cc1ncsc1-c1ccc(CNC(=O)C2C[C@@H](O)CN2C(=O)[C@@H](NC(=O)CN(C)c2ccc(OCCOc3ccc(N4C(=S)N(c5ccc(C#N)c(C(F)(F)F)c5)C(=O)C4(C)C)cc3)cc2)C(C)(C)C)cc1 (some centres unmarked) [Example 379]
Dmax (VCaP, read-out: VCaP Dmax (%)): 51 to 70% | DC50 [2]: < 50 nM

DC50 [3]: > 501 nM | Dmax [4]: < 25%
Structure (SMILES): Cc1ncsc1-c1ccc([C@H](C)NC(=O)[C@@H]2C[C@@H](O)CN2C(=O)[C@@H](C(C)C)n2cc(-c3ccnc(N4CC[C@@H](Nc5ccc(C(=O)N[C@H]6C(C)(C)[C@H](Oc7ccc(C#N)c(Cl)c7)C6(C)C)cc5)C4)c3)cn2)cc1 [Example 597, (2S,4R)-1-((R)-2-(4-(2-((R)-3-((4-(((1r,3R)-3-(3-chloro-4-cyanophenoxy)-2,2,4,4-tetramethylcylcobutyl)carbamoyl)phenyl)amino)pyrrolidin-1-yl)pyridin-4-yl)-1H-pyrazol-1-yl)-3-methylbutanoyl)-4-hydroxy-N-((S)-1-(4-(4-methylthiazol-5-yl)phenyl)ethyl)pyrroli-dine-2-carboxamide]

DC50 [3]: > 501 nM | Dmax [4]: < 25%
Structure (SMILES): Cc1ncsc1-c1ccc([C@H](C)NC(=O)[C@@H]2C[C@@H](O)CN2C(=O)[C@@H](NC(=O)COCCN2CCN(c3ccc(C(=O)N[C@H]4C[C@H](Oc5ccc(C#N)c(Cl)c5)C4)cn3)CC2)C(C)(C)C)cc1 [Example 765, N-((1r,3r)-3-(3-chloro-4-cyanophenoxy)cyclobutyl)-6-(4-(2-(2-(((S)-1-((2S,4R)-4-hydroxy-2-(((S)-1-(4-(4-methylthiazol-5-yl)phenyl)ethyl)carbam-oyl)pyrrolidin-1-yl)-3,3-dimethyl-1-oxobutan-2-yl)amino)-2-oxoethoxy)ethyl)pipera-zin-1-yl)nicotinamide]

Structure (SMILES): Cc1ncsc1-c1ccc([C@H](C)NC(=O)[C@@H]2C[C@@H](O)CN2C(=O)[C@@H](NC(=O)[C@H](CO)N2CCN(CCOc3ccc(C(=O)N[C@H]4C(C)(C)[C@H](Oc5ccc(C#N)c(Cl)c5)C4(C)C)cc3)CC2)C(C)(C)C)cc1 [Example 655, (2S,4R)-1-((S)-2-((S)-2-(4-(2-(4-(((1r,3r)-3-(3-chloro-4-cyanophenoxy)-2,2,4,4-tetramethylcyclobutyl)carbamoyl)phenoxy)eth-yl)piperazin-1-yl)-3-hydroxypropanamido)-3,3-dimethylbutanoyl)-4-hydroxy-N-((S)-1-(4-(4-methylthiazol-5-yl)phenyl)ethyl)pyrrolidine-2-carboxamide]
DC50 [3]: > 501 nM | Dmax (VCaP, read-out: VCaP Dmax (%)): 26 to 50%

Dmax (VCaP, read-out: VCaP Dmax (%)): > 71% | DC50 [5]: < 50 nM
Structure (SMILES): Cc1ncsc1-c1ccc([C@H](C)NC(=O)[C@@H]2C[C@@H](O)CN2C(=O)[C@@H](NC(=O)COCCN2C[C@@H]3C[C@H]2CN3c2ccc(C(=O)N[C@H]3C(C)(C)[C@H](Oc4ccc(C#N)c(Cl)c4)C3(C)C)cn2)C(C)(C)C)cc1 [Example 637, N-((1r,3S)-3-(3-chloro-4-cyanophenoxy)-2,2,4,4-tetramethylcyclobutyl)-6-((1S,4S)-5-(2-(2-(((S)-1-((2S,4R)-4-hydroxy-2-(((S)-1-(4-(4-methylthiazol-5-yl)phenyl)ethyl)carbam-oyl)pyrrolidin-1-yl)-3,3-dimethyl-1-oxobutan-2-yl)amino)-2-oxoethoxy)ethyl)-2,5-diazabicyclo[2.2.1]hept-an-2-yl)nicotinamide]

DC50 [6]: < 50 nM | Dmax [7]: > 71%
Structure (SMILES): Cc1ncsc1-c1ccc(CNC(=O)[C@@H]2C[C@@H](O)CN2C(=O)[C@@H](NC(=O)COc2ccccc2CCCOc2ccc(C(=O)N[C@H]3C(C)(C)[C@H](Oc4ccc(C#N)c(Cl)c4)C3(C)C)cc2)C(C)(C)C)cc1 [Example 417]

Structure (SMILES): Cc1ncsc1-c1ccc([C@H](C)NC(=O)[C@@H]2C[C@@H](O)CN2C(=O)[C@@H](NC(=O)COc2ccc(OC3CCN(c4ccc(N5C(=S)N(c6ccc(C#N)c(C(F)(F)F)c6)C(=O)C5(C)C)cn4)CC3)nc2)C(C)(C)C)cc1 [Example 429]
Dmax (VCaP, read-out: VCaP Dmax (%)): 26 to 50% | DC50 [1]: > 501 nM

DC50 [3]: > 501 nM | Dmax [4]: < 25%
Structure (SMILES): Cc1ncsc1-c1ccc([C@H](C)NC(=O)[C@@H]2C[C@@H](O)CN2C(=O)C(NC(=O)CO[C@H]2CCCC[C@@H]2N2CCN(CCOc3ccc(C(=O)N[C@H]4C(C)(C)[C@H](Oc5ccc(C#N)c(Cl)c5)C4(C)C)cc3)CC2)C(C)(C)C)cc1 (stereo partly drawn) [Example 791, (2S,4R)-1-((S)-2-(2-(((1S,2S)-2-(4-(2-(4-(((1r,3r)-3-(3-chloro-4-cyanophenoxy)-2,2,4,4-tetramethylcyclobutyl)carbamoyl)phenoxy)ethyl)piperazin-1-yl)cyclohexyl)oxy)acetamido)-3,3-dimethylbutanoyl)-4-hydroxy-N-((S)-1-(4-(4-methylthiazol-5-yl)phenyl)ethyl)pyrrolidine-2-carboxamide]

DC50 [8]: < 50 nM | Dmax [9]: 26 to 50%
Structure (SMILES): CC(C)(C)[C@H](NC(=O)COCCCCCNc1ccc(C(=O)N[C@H]2C(C)(C)[C@H](Oc3ccc(C#N)c(Cl)c3)C2(C)C)cc1)C(=O)N1C[C@H](O)C[C@H]1C(=O)NCc1ccc(-n2nccn2)cc1 [Example 527]

Structure (SMILES): Cc1nccn1-c1ccc([C@H](C)NC(=O)[C@@H]2C[C@@H](O)CN2C(=O)[C@H](C(C)C)n2cc(OCCCOCCCCCOc3ccc(N4C(=S)N(c5ccc(C#N)c(C(F)(F)F)c5)C(=O)C4(C)C)cc3)cn2)cc1 [Example 611, (2S,4R)-1-((S)-2-(4-(3-((5-(4-(3-(4-cyano-3-(trifluoromethyl)phenyl)-5,5-dimethyl-4-oxo-2-thioxoimidazolidin-1-yl)phenoxy)pentyl)oxy)propoxy)-1H-pyrazol-1-yl)-3-methylbutanoyl)-4-hydroxy-N-((S)-1-(4-(2-methyl-1H-imidazol-1-yl)phenyl)ethyl)pyrrolidine-2-carboxamide]
Dmax (VCaP, read-out: VCaP Dmax (%)): < 25% | DC50 [5]: > 501 nM

DC50 [6]: < 50 nM | Dmax [7]: > 71%
Structure (SMILES): Cc1ncsc1-c1ccc([C@H](C)NC(=O)[C@@H]2C[C@@H](O)CN2C(=O)[C@@H](NC(=O)COCCCOCCCCOc2ccc(N3C(=S)N(c4cnc(C#N)c(C(F)(F)F)c4)C(=O)C3(C)C)cc2)C(C)(C)C)cc1 [Example 365]

DC50 [3]: < 50 nM | Dmax [4]: 51 to 70%
Structure (SMILES): Cc1ncsc1-c1ccc([C@H](C)NC(=O)[C@@H]2C[C@@H](O)CN2C(=O)[C@@H](NC(=O)COCCN2CCN(c3ccc(C(=O)N[C@H]4CC(Oc5ccc(C#N)c(Cl)c5)C4(C)C)cn3)CC2)C(C)(C)C)cc1 (stereo partly drawn) [Example 849, N-((1S)-3-(3-chloro-4-cyanophenoxy)-2,2-dimethylcyclobutyl)-6-(4-(2-(2-(((S)-1-((2S, 4R)-4-hydroxy-2-(((S)-1-(4-(4-methylthiazol-5-yl)phenyl)ethyl)carbamoyl)pyrrolidin-1-yl)-3,3-dimethyl-1-oxobutan-2-yl)amino)-2-oxoethoxy)ethyl)piperazin-1-yl)nicotinamide]

DC50 [3]: < 50 nM | Dmax (VCaP, read-out: VCaP Dmax (%), VCaP cells; Table 36): 51 to 70%
Structure (SMILES): Cc1ncsc1-c1ccc([C@H](C)NC(=O)[C@@H]2C[C@@H](O)CN2C(=O)[C@@H](NC(=O)COCCCCCc2ccc(C(=O)N[C@H]3C(C)(C)[C@H](Oc4ccc(C#N)c(C(F)(F)F)c4)C3(C)C)cc2)C(C)(C)C)cc1 [Example 657, (2S,4R)-1-((S)-2-(2-((5-(4-(((1r,3r)-3-(4-cyano-3-(trifluoromethyl)phenoxy)-2,2,4,4-tetramethylcyclobutyl)carbamoyl)phenyl)pentyl)oxy)acetamido)-3,3-dimethylbutanoyl)-4-hydroxy-N-((S)-1-(4-(4-methylthiazol-5-yl)phenyl)ethyl)pyrrolidine-2-carboxamide]

DC50 [8]: < 50 nM | Dmax [9]: > 71%
Structure (SMILES): Cc1ncsc1-c1ccc(CNC(=O)[C@@H]2C[C@@H](O)CN2C(=O)[C@@H](NC(=O)COCCCCCS(=O)(=O)c2ccc(C(=O)N[C@H]3C(C)(C)[C@H](Oc4ccc(C#N)c(Cl)c4)C3(C)C)cc2)C(C)(C)C)cc1 [Example 476]

Structure (SMILES): Cc1ncsc1-c1ccc(CNC(=O)[C@@H]2C[C@@H](O)CN2C(=O)[C@@H](NC(=O)COCCCCOCCCCOc2cccc(N3C(=S)N(c4ccc(C#N)c(C(F)(F)F)c4)C(=O)C3(C)C)c2)C(C)(C)C)cc1 [Example 320]
Dmax (VCaP, read-out: VCaP Dmax (%)): 26 to 50% | DC50 [2]: < 50 nM
